US6737383B1, “Herbicidal oxadiazolidines” (priority 1999, dated 2004)

How the values were obtained:
winter barley = test: Test E winter barley; format: in vivo, Hordeum vulgare; conditions: Preemergence
wild oat [1] = test: Test E wild oat; format: in vivo, Avena fatua; conditions: Preemergence
Johnson grass = test: Test D Johnson grass; format: in vivo, Sorghum halepense; conditions: Preemergence, 0 to 100 scale
Outline: (§1)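 Herbicide screen in the greenhouse. A non-phytotoxic solvent mixture with surfactant carried the test chemical; in pre-emergence tests it went onto the soil of pots seeded no more than a day earlier. Injury was scored by eye 14 to 21 days after application, 0 to 100.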

green foxtail = test: Test E green foxtail; format: in vivo, Setaria viridis; conditions: Preemergence
Italian ryegrass = test: Test E Italian ryegrass; format: in vivo, Lolium multiflorum; conditions: Preemergence
sandbur = test: Test D sandbur; format: in vivo, Cenchrus echinatus; conditions: Preemergence, 0 to 100 scale
Outline: as §1

bedstraw = test: Test B pre/postemergence bedstraw; format: in vivo, Galium aparine
Outline: (§2)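 Response is a visual 0-to-10 score relative to untreated plants, where 0 means no effect and 10 means complete control, taken twelve to sixteen days after application. Treatments went onto soil at planting and onto foliage of 1- to 4-leaf plants, using a surfactant-containing non-phytotoxic solvent.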

blackgrass = test: Test E blackgrass; format: in vivo, Alopecurus myosuroides; conditions: Preemergence
winter wheat [2] = test: Test E winter wheat; format: in vivo, Triticum aestivum; conditions: Postemergence
Outline: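 For postemergence, sowings are timed so plants reach the 1- to 4-leaf stage at spraying. Test compound is applied in a surfactant-containing solvent mixture that is non-phytotoxic. Response is judged by eye against untreated controls after approximately 21 to 28 days.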

goosegrass = test: Test D goosegrass; format: in vivo, Eleusine indica; conditions: Preemergence, 0 to 100 scale
Outline: as §1

wild oat [3] = test: Test B pre/postemergence wild oat; format: in vivo, Avena fatua; conditions: for Plant response rating, Wild oats: Rate 250 g/ha
Outline: as §2

winter wheat [4] = test: Test E winter wheat; format: in vivo, Triticum aestivum; conditions: Preemergence
bamyardgrass = test: Test B flood test barnyardgrass; format: in vivo, Echinochloa crus-galli
Outline: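 Each value is a visual injury score relative to controls, with 10 meaning complete control and 0 no effect. Evaluation took place twelve to sixteen days after the 2-leaf-stage plants were treated and kept in the greenhouse.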

tall mallow = test: Test D tall mallow; format: in vivo, Malva sylvestris; conditions: Preemergence, 0 to 100 scale
Outline: as §1

surinam grass = test: Test B pre/postemergence surinam grass; format: in vivo, Brachiaria decumbens
Outline: as §2

[5] = Rate 62 g/ha, 0 to 100 scale, 0 no effect, 100 complete control
[6] = Rate 125 g/ha, 0 to 100 scale (0 no effect, 100 complete control)
[7] = Rate 16 g/ha, 0 no injury, 100 complete control
[8] = Rate 32 g/ha, 0 no injury, 100 complete control
[9] = Rate 64 g/ha, 0 no injury, 100 complete control
[10] = Postemergence, Rate 62 g/ha, scale 0 to 10, 0 is no effect, 10 is complete control
[11] = Postemergence, Rate 250 g/ha, scale 0 to 10, 0 no effect, 10 complete control
[12] = Preemergence, Rate 62 g/ha, scale 0 to 10 (0 no effect, 10 complete control)
[13] = Preemergence, Rate 125 g/ha, scale 0 to 10 (0 no effect, 10 complete control)
[14] = Preemergence, Rate 250 g/ha, scale of 0 to 10 where 0 is no effect and 10 is complete control
[15] = Preemergence, Rate 500 g/ha, scale 0 to 10 (0 no effect, 10 complete control)
[16] = Rate 125 g/ha, Postemergence, scale 0 to 10, 0 no effect, 10 complete control

CC(C)N(C(=O)n1oc(=O)n(C2CCCCC2)c1=O)c1ccccc1 [Compound 112]
20: Plant response rating, Green foxtail (green foxtail; [6]) | Plant response rating, I. Ryegrass (Italian ryegrass; Rate 250 g/ha, 0 to 100 scale) | Plant response rating, Blackgrass (blackgrass; [6]) | Plant response rating, Tall Mallow (tall mallow; Rate 500 g/ha)
6: Wild oats plant response rating (wild oat [3]; [15])
2: Plant response rating, Wild oats (wild oat [3]; Preemergence, scale of 0 to 10 where 0 is no effect and 10 is complete control)
5: B. signalgrass plant response rating (surinam grass; [15])
4: B. signalgrass plant response rating (surinam grass; Rate 500 g/ha, Postemergence, scale of 0 to 10 where 0 is no effect and 10 is complete control)
85: Plant response rating, Goosegrass (goosegrass; [9])
40: Plant response rating, Goosegrass (goosegrass; [7]) | Plant response rating, Goosegrass (goosegrass; [8])
3: Plant response rating, B. signalgrass (surinam grass; [14])
100: Plant response rating, Sandbur (sandbur; Rate 500 g/ha) | Plant response rating, Goosegrass (goosegrass; Rate 250 g/ha) | Plant response rating, Goosegrass (goosegrass; Rate 500 g/ha)
1: Wild oats plant response rating (wild oat [3]; Rate 500 g/ha, Postemergence, scale 0 to 10, 0 no effect, 10 complete control)
10: Plant response rating, Barley (winter) (winter barley; [6]) | Plant response rating, Barley (winter) (winter barley; Rate 250 g/ha, 0 to 100 scale) | Plant response rating, Green foxtail (green foxtail; [5]) | Plant response rating, Blackgrass (blackgrass; [5]) | Plant response rating, Wheat (winter) (winter wheat [2]; Rate 250 g/ha, 0 to 100 scale (0 no effect, 100 complete control))
50: Plant response rating, Johnsongrass (Johnson grass; Rate 500 g/ha) | Plant response rating, Green foxtail (green foxtail; Rate 250 g/ha, 0 to 100 scale) | Plant response rating, Blackgrass (blackgrass; Rate 250 g/ha, 0 to 100 scale)
0: Plant response rating, Barley (winter) (winter barley; [5]) | Plant response rating, Wild oat (wild oat [1]; [5]) | Plant response rating, Wild oat (wild oat [1]; [6]) | Plant response rating, Johnsongrass (Johnson grass; [7]) | Plant response rating, Johnsongrass (Johnson grass; [8]) | Plant response rating, Johnsongrass (Johnson grass; [9]) | Plant response rating, Johnsongrass (Johnson grass; Rate 250 g/ha) | Plant response rating, I. Ryegrass (Italian ryegrass; [5]) | Plant response rating, I. Ryegrass (Italian ryegrass; [6]) | Plant response rating, Sandbur (sandbur; [7]) | Plant response rating, Sandbur (sandbur; [8]) | Sandbur plant response rating (sandbur; [9]) | Plant response rating, Sandbur (sandbur; Rate 250 g/ha) | Bedstraw plant response rating (bedstraw; [10]) | Bedstraw plant response rating (bedstraw; [12]) | Plant response rating, Bedstraw (bedstraw; [13]) | Plant response rating, Bedstraw (bedstraw; [14]) | Bedstraw plant response rating (bedstraw; [15]) | Bedstraw plant response rating (bedstraw; [16]) | Plant response rating, Wheat (winter) (winter wheat [2]; Rate 62 g/ha, 0 to 100 scale) | Plant response rating, Wheat (winter) (winter wheat [2]; Rate 125 g/ha, 0 to 100 scale) | Wild oats plant response rating (wild oat [3]; Postemergence, Rate 125 g/ha, scale of 0 to 10 where 0 is no effect and 10 is complete control) | Wild oats plant response rating (wild oat [3]; [12]) | Wild oats plant response rating (0 to 10 scale) (wild oat [3]; Preemergence, Rate 125 g/ha, 0 is no effect, 10 is complete control) | Wild oats plant response rating (wild oat [3]; Rate 62 g/ha, Postemergence, scale of 0 to 10 where 0 is no effect and 10 is complete control) | Plant response rating, Wild oats (wild oat [3]; Postemergence, scale 0 to 10, 0 is no effect, 10 is complete control) | Plant response rating, Wheat (winter) (winter wheat [4]; [5]) | Plant response rating, Wheat (winter) (winter wheat [4]; [6]) | Plant response rating, Wheat (winter) (winter wheat [4]; Rate 250 g/ha, 0 to 100 scale) | Barnyardgrass plant response rating (bamyardgrass; [10]) | Barnyardgrass plant response rating (bamyardgrass; Rate 125 g/ha, Postemergence section (flood test species), scale 0 to 10, 0 no effect, 10 complete control) | Barnyardgrass plant response rating (bamyardgrass; Rate 500 g/ha, listed under Postemergence (flood test species), scale 0 to 10, 0 no effect, 10 complete control) | Barnyardgrass plant response rating (bamyardgrass; flood test, listed under Postemergence, Rate 250 g/ha, scale 0 to 10, 0 no effect, 10 complete control) | Plant response rating, Tall Mallow (tall mallow; [7]) | Plant response rating, Tall Mallow (tall mallow; [8]) | Tall Mallow plant response rating (tall mallow; [9]) | Plant response rating, Tall Mallow (tall mallow; Rate 250 g/ha) | B. signalgrass plant response rating (surinam grass; [10]) | B. signalgrass plant response rating (surinam grass; [11]) | B. signalgrass plant response rating (surinam grass; [12]) | Plant response rating, B. signalgrass (surinam grass; [13]) | B. signalgrass plant response rating (surinam grass; [16])
7: Bedstraw plant response rating (bedstraw; [11])
